The test system of this experiment is HSP72 in SK-OV-3 cells. Description: Cell-based ELISA (Cellisa) assay, SK-OV-3 cells: inhibition of 17-AAG-induced HSP72. Conditions: Homo sapiens; SK-OV-3 cells (Examples 169-218). The procedure:
U2OS cells (5-8×10^4 cells/mL) or SK-OV-3 cells (5-8×10^4 cells/mL) were seeded into 96-well plates and incubated at 37° C. for 48 h. Compounds were then added at a range of concentrations and incubated for 1 h before addition of 17-AAG (250 nM). Cells were then incubated for 18 h. The medium was removed washed 2× with PBS and cells were then fixed with fixing solution (4% paraformaldehyde, 0.3% TritonX-100 in PBS) for 30 min at 4° C. The plates were then washed 2× with PBS before blocking with 5% milk for 30 min at 37° C. After washing the plates 4× with 0.1% Tween-20/deionised water, HSP72 antibody (SPA-810, Enzo Life) was added for 1.5 h at 37° C. Following 4× washes, the plates were incubated with europium-labelled anti-mouse antibody (0.6 ug/ml) in Delfia assay buffer (Perkin Elmer) for 1 h at 37° C. After washing the plates, Delfia enhancement solution was added, shaken for 10 min before reading in the Envision plate reader (Perkin-Elmer) with excitation at 340 nm and emission at 615 nm. The plates were washed again before protein determination using the bicinchoninic acid assay (BCA assay, Pierce Biotechnology). The europium counts were normalised for the amount of protein in each well. The 50% inhibitory concentration value of the compound was then calculated.
Background: An ELISA detects its analyte on a solid surface through an enzyme-linked reagent.

The structures appear in SMILES notation.

In the case of `Cc1ccc(NC(=O)c2ccc3c(c2)OCCO3)cc1NC(=O)c1ccc2nc(CN3CCCC3C)ccc2c1` (centres unmarked) [Example 205, N-(5-(2,3-dihydrobenzo[b][1,4]dioxine-6-carboxamido)-2-methylphenyl)-2-((2-methylpyrrolidin-1-yl)methyl)quinoline-6-carboxamide], the IC50 is 65 nM.
`Cc1ccc(NC(=O)c2ccc3c(c2)OCCO3)cc1NC(=O)c1ccc2nc(CN3CC[C@@H](F)C3)ccc2c1` [Example 206, (R)—N-(5-(2,3-dihydrobenzo[b][1,4]dioxine-6-carboxamido)-2-methylphenyl)-2-((3-fluoropyrrolidin-1-yl)methyl)quinoline-6-carboxamide] came in with an IC50 of 76 nM. The IC50 values of the last two compounds are within 1.5-fold of each other.
As to `Cc1ccc(NC(=O)c2ccc3c(c2)OCCO3)cc1NC(=O)c1ccc2nc(CN3CC[C@H](F)C3)ccc2c1` [Example 207, (S)—N-(5-(2,3-dihydrobenzo[b][1,4]dioxine-6-carboxamido)-2-methylphenyl)-2-((3-fluoropyrrolidin-1-yl)methyl)quinoline-6-carboxamide], the IC50 amounted to 80 nM.
As for `COC1CCN(Cc2ccc3cc(C(=O)Nc4cc(NC(=O)c5ccc6c(c5)OCCO6)ccc4C)ccc3n2)C1` (centres unmarked) [Example 208, N-(5-(2,3-dihydrobenzo[b][1,4]dioxine-6-carboxamido)-2-methylphenyl)-2-((3-methoxypyrrolidin-1-yl)methyl)quinoline-6-carboxamide], half-maximal inhibition (IC50) was put at 53 nM.
As for `Cc1ccc(NC(=O)c2ccc3c(c2)OCCO3)cc1NC(=O)c1ccc2nc(CN3CCCCC3)ccc2c1` [Example 209, N-(5-(2,3-dihydrobenzo[b][1,4]dioxine-6-carboxamido)-2-methylphenyl)-2-(piperidin-1-ylmethyl)quinoline-6-carboxamide], the figure is 208 nM; as for `C=Cc1ccc(NC(=O)c2ccc3c(c2)OCCO3)cc1NC(=O)c1ccc2nc(C)ccc2c1` [Example 210, N-(5-(2,3-dihydrobenzo[b][1,4]dioxine-6-carboxamido)-2-vinylphenyl)-2-methylquinoline-6-carboxamide], 419 nM.
The compound `O=C(Nc1ccc(Cl)c(NC(=O)c2ccc3nc(OCCN4CCCC4)ccc3c2)c1)c1ccc2c(c1)OCCO2` [Example 211, N-(2-chloro-5-(2,3-dihydrobenzo[b][1,4]dioxine-6-carboxamido)phenyl)-2-(2-(pyrrolidin-1-yl)ethoxy)quinoline-6-carboxamide] registered an IC50 of 73 nM. This IC50 lies about 5.7-fold lower than the previous one.
As for `CCN1CCN(Cc2ccc3cc(C(=O)Nc4cc(NC(=O)c5ccc6c(c5)OCCO6)ccc4F)ccc3n2)[C@H](C)C1` [Example 212, (R)—N-(5-(2,3-dihydrobenzo[b][1,4]dioxine-6-carboxamido)-2-fluorophenyl)-2-((4-ethyl-2-methylpiperazin-1-yl)methyl)quinoline-6-carboxamide], the figure is 85 nM; as for `CCN1CCN(Cc2ccc3cc(C(=O)Nc4cc(NC(=O)c5ccc6c(c5)OCCO6)ccc4F)ccc3n2)[C@@H](C)C1` [Example 213, (S)—N-(5-(2,3-dihydrobenzo[b][1,4]dioxine-6-carboxamido)-2-fluorophenyl)-2-((4-ethyl-2-methylpiperazin-1-yl)methyl)quinoline-6-carboxamide], 57 nM; as for `CCN1CCN(C(C)c2ccc3cc(C(=O)Nc4cc(NC(=O)c5ccc6c(c5)OCCO6)ccc4F)ccc3n2)CC1` (centres unmarked) [Example 214, N-(5-(2,3-dihydrobenzo[b][1,4]dioxine-6-carboxamido)-2-fluorophenyl)-2-(1-(4-ethylpiperazin-1-yl)ethyl)quinoline-6-carboxamide], 957 nM.
Compound `CCN1CCN(Cc2ccc3cc(C(=O)Nc4cc(NC(=O)c5ccc6c(c5)OCCO6)ccc4Br)ccc3n2)CC1` [Example 215, N-(2-bromo-5-(2,3-dihydrobenzo[b][1,4]dioxine-6-carboxamido)phenyl)-2-((4-ethylpiperazin-1-yl)methyl)quinoline-6-carboxamide] gave an IC50 of 39 nM.
`O=C(Nc1ccc(Br)c(NC(=O)c2ccc3nc(CN4CCC4)ccc3c2)c1)c1ccc2c(c1)OCCO2` [Example 216, 2-(azetidin-1-ylmethyl)-N-(2-bromo-5-(2,3-dihydrobenzo[b][1,4]dioxine-6-carboxamido)phenyl)quinoline-6-carboxamide]: the IC50 came out at 55 nM.
As for `CC(C)N1CCN(Cc2ccc3cc(C(=O)Nc4cc(NC(=O)c5ccc6c(c5)OCCO6)ccc4F)ccc3n2)[C@@H](C)C1` [Example 217, (S)—N-(5-(2,3-dihydrobenzo[b][1,4]dioxine-6-carboxamido)-2-fluorophenyl)-2-((4-isopropyl-2-methylpiperazin-1-yl)methyl)quinoline-6-carboxamide], the figure is 137 nM; as for `CC(C)N1CCN(Cc2ccc3cc(C(=O)Nc4cc(NC(=O)c5ccc6c(c5)OCCO6)ccc4F)ccc3n2)[C@H](C)C1` [Example 218, (R)—N-(5-(2,3-dihydrobenzo[b][1,4]dioxine-6-carboxamido)-2-fluorophenyl)-2-((4-isopropyl-2-methylpiperazin-1-yl)methyl)quinoline-6-carboxamide], 80 nM.

One may read the IC50 as the concentration at which inhibition is half-maximal. Read a low IC50 as higher potency.

The values above are taken from patent US9701664B2, “Fused 1,4-dihydrodioxin derivatives as inhibitors of heat shock transcription factor 1” (Cancer Research Technology Limited, priority 2013, dated 2017).
